# Test results as given in patent US20240082235A1, “METHOD FOR TREATING OR INHIBITING CYTOMEGALOVIRUS INFECTION USING SMALL MOLECULES TARGETING PROTEIN PHOSPHATASE 1” (HOWARD UNIVERSITY, priority 2020, published 2024).
# What was measured:
# [1] = target: T1, PP1-cdNIPP1 interaction (Homo sapiens, UniProt P62136); assay: Split NanoBit protein:protein interaction assay, WT PP1 with WT cdNIPP1; type: binding; conditions: FIG. 4B
# T1 construct: NanoBiT large bit (LgBiT)
# [2] = target: T2, PP1-cdNIPP1 RATA interaction (Homo sapiens, UniProt P62136); assay: Split NanoBit protein:protein interaction assay, WT PP1 with RVxF-mutant cdNIPP1; type: binding; conditions: FIG. 4B, cdNIPP1 with RVxF mutation
# T2 construct: NanoBiT large bit (LgBiT)
# T2 sequence (P62136 whole entry): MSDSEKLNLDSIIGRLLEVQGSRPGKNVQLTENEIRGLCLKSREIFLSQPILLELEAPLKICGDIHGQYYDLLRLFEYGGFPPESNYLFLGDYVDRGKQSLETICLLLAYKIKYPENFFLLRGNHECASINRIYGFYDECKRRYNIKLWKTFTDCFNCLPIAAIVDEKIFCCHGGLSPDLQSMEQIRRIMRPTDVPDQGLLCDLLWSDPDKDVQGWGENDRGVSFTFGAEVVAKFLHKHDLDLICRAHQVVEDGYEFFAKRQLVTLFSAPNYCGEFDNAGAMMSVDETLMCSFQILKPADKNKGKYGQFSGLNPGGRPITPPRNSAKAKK
# [3] = tested on: CMV; assay: Plaque assay of human foreskin fibroblasts infected with CMV; type: cell-based, human cytomegalovirus; conditions: percentage compared to untreated control, FIG. 5A
# [4] = tested on: CMV immediate early proteins; assay: Expression of CMV immediate early proteins in infected cells; type: cell-based, human cytomegalovirus; conditions: FIG. 5B
# [5] = tested on: CMV IE1, IE2 and UL32 mRNA; assay: Viral mRNA expression by RT-qPCR in infected human foreskin fibroblasts; type: cell-based, human cytomegalovirus; conditions: fold-change compared to infected cells treated with vehicle only, FIG. 5C
# [6] = target: PP1 (Homo sapiens, UniProt P62136); conditions: SPR; Lin et al. 2017; read-out: KD of binding to PP1; cited from earlier work
# Sequence of PP1 (P62136 whole entry): as above
# [7] = target: PP1 with peptides containing an RVxF sequence (Homo sapiens, UniProt P62136); conditions: in vitro; Ammosova et al. 2012, 2014; cited from earlier work
# Sequence of PP1 with peptides containing an RVxF sequence (P62136 whole entry): as above
# T1 sequence (P62136 whole entry): as above
smiles,measurement,setting,value
CCNC(=O)NC(=O)C(C)OC(=O)c1c2c(nc3ccccc13)/C(=C/c1ccc(OC)c(OC)c1)CC2 (stereo not shown) [1E7-03],Effect on PP1-cdNIPP1 interaction,[1],inhibited the PP1-cdNIPP1 interaction
same,Effect on PP1-cdNIPP1 RATA interaction,[2],did not have an effect
same,Inhibition of CMV replication,[3],concentration-dependent inhibition of CMV replication
same,Expression of CMV immediate early proteins,[4],reduced
same,"Viral mRNA expression (IE1, IE2, UL32)",[5],no effect on viral transcription
same,Kd,[6],6.2 µM
same,Interaction of PP1 with peptides containing an RVxF sequence,[7],disrupted the interaction of PP1 with peptides containing an RVxF sequence
